{
  "source": "patent US20230167124A1",
  "about": "“Methods for the Production of Nickel (II) Etioporphyrin-I” (Adgero Biopharmaceuticals Holdings, Inc., priority 2020, published 2023)",
  "assay": "Solubility of etioporphyrin-I in chloroform",
  "format": "physicochemical",
  "conditions": "solvent chloroform",
  "protocol": "In addition to the problems associated with the isolation of the dipyrromethenes, another difficulty in the syntheses of etioporphyrin I is the work up and purification procedures for isolating etioporphyrin-I. The coupling reaction of the dipyrromethenes (see Scheme 3, (5) and (6)) is carried out in refluxing formic acid. Generally, this gives a tarry, black reaction mixture that yield about 20-35% of etioporphyrin-I after extensive chromatography. On small scales (1-40 g of dipyrromethenes), dissolution of the tarry reaction mixture in chloroform, followed by neutralization and chromatography on large amounts of silica affords the desired porphyrin. […] During this process it is not uncommon for etioporphyrin-I to precipitate from solution onto the silica gel, making column chromatography (even on small scale (10 g)) difficult. Clearly, such a process is not feasible economically on large scale.",
  "data": [
    {"substance": "etioporphyrin-I", "values": [
      {"measurement": "solubility in chloroform", "value": "< 10000", "unit": "µg/mL"}
    ]}
  ]
}
